Test results: patent US20200113950A1, “Human microbiota derived N-acyl amides for the treatment of human disease” (The Rockefeller University, priority 2017, published 2020)
“Also recorded” adds a separate entry of the source.

Assays:
[1] = system: GLUTag cells; assay: GLP-1 release from GLUTag cells; format: cell-based, Murine; details: equimolar concentrations, 2 hours
Text: (§1) GPR119 is the most extensively studied of the GPCRs activated by bacterial N-acyl amides (FIG. 4). Mechanisms that link endogenous GPR119 agonists (OEA, 2-OG) to changes in host phenotype are well defined as a result of the exploration of GPR119 as a therapeutic target for the treatment of diabetes and obesity. In fact, synthetic small molecule GPR119 agonists are in clinical trials as treatment for both diseases (Ritter et al., 2016, J Med Chem 59:3579-92; Nunez et al., 2014, PLoS One 9:e92494; Ha et al., 2014, Arch Pharm Res 37:671-8; Katz et al., 2012, Diabetes Obes Metab 14:709-16). GPR119 agonists are thought to affect diverse metabolic functions, primarily glucose homeostasis but also gastric emptying and appetite, in vivo through GPR119-dependent hormone release from enteroendocrine cells (GLP-1, GIP, PYY) and pancreatic β-cells (insulin) (Flock et al., 2011, Endorinol 152:374-83; Overton et al., 2006, Cell Metab 3:167-75; Chu et al., 2007, Endocrinol 148:2601-9; Chu et al., 2008, Endocrinol 149:2038-47; Lauffer et al., 2009, Diabetes 58:1058-66; Serrano et al., 2011, Neuropharmacol 60:593-601). Murine enteroendocrine GLUTag cells have been used as a model system for measuring the ability of potential GPR119 agonists to induce GLP-1 release. […] To provide an orthogonal measurement of GPR119 activation by N-acyl serinols, HEK293 cells were stably transfected with a GPR119 expression construct.
Oleoyl ethanolamide and 2-oleoyl glycerol were purchased from Cayman Chemical Company and resuspended in DMSO to a concentration of 10 mM. N-oleoyl serinol was isolated and purified in the same manner as N-palmitoyl serinol described above and confirmed by ^1H NMR and HRMS. N-oleoyl serinol was resuspended at 10 mM concentration in DMSO. GLUTag cells were obtained from the Mangelsdorf Lab (University of Texas Southwestern) with permission from Daniel Drucker (Mount Sinai Hospital Toronto). […] Media was then collected, centrifuged at 500×g (4° C.) for 5 minutes and cell free supernatant was analyzed for GLP-1 level using the Active GLP-1 V2 kit (Mesoscale Discovery). […]

[2] = molecular target: S1PR2 (Homo sapiens, UniProt O95136); assay: β-arrestin GPCR screen, agonist mode, S1PR2; format: cell-based
S1PR2, sequence (O95136 whole entry): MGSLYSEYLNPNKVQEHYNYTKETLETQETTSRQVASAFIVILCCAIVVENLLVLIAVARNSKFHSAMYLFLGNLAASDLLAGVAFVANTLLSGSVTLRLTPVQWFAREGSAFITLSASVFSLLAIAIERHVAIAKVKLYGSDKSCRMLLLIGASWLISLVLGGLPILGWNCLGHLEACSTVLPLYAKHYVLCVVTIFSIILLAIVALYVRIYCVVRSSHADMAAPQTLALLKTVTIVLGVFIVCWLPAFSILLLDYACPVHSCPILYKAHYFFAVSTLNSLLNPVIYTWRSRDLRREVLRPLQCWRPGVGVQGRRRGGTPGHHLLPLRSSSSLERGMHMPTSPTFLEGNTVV
Description: (§2) Using β-arrestin cell-based assays at 10 uM ligand concentration, agonist and antagonist activity was assessed by DiscoveRx against 168 GPCRs with known ligands as well as 72 orphan GPCRs. […] Synthetic N-acyl amides were assayed in the same fashion.

[3] = molecular target: T1, sphingosine-1-phosphate receptor 4 (S1PR4) (Homo sapiens, UniProt O95977); assay: β-arrestin cell-based GPCR assay (DiscoveRx), agonist mode, S1PR4; details: for agonist activity at / interaction with S1PR4: GPCR screen
T1 sequence (O95977 1-384): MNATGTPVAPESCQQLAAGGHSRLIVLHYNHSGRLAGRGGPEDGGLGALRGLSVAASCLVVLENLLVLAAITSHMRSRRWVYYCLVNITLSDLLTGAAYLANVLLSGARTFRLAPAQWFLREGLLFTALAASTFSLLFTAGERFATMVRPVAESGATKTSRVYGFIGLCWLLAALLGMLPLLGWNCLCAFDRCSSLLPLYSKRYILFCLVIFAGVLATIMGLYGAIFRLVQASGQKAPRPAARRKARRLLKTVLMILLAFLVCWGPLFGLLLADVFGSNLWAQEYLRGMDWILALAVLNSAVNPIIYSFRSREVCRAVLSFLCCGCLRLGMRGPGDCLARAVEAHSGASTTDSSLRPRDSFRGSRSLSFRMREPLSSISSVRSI
Description: The major N-acyl amide analog isolated from each family was assayed for agonist and antagonist activity against a panel of 240 human GPCRs (FIG. 3 and FIG. 8).
as §2

[4] = molecular target: S1PR3 (Homo sapiens, UniProt Q99500); assay: β-arrestin GPCR screen, agonist mode, S1PR3; format: cell-based
S1PR3, sequence (Q99500 whole entry): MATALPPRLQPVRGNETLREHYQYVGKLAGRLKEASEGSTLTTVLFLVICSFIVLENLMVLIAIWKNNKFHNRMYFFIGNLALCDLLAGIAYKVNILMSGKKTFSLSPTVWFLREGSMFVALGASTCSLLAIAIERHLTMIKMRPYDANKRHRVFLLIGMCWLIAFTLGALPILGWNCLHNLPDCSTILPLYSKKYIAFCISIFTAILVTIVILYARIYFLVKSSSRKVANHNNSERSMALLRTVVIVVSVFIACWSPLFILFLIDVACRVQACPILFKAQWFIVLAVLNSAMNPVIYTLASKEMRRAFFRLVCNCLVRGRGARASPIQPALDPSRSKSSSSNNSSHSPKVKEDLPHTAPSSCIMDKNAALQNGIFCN
Description: as §2

[5] = molecular target: S1PR1 (Homo sapiens, UniProt P21453); assay: β-arrestin GPCR screen, agonist mode, S1PR1; format: cell-based
S1PR1, sequence (P21453 whole entry): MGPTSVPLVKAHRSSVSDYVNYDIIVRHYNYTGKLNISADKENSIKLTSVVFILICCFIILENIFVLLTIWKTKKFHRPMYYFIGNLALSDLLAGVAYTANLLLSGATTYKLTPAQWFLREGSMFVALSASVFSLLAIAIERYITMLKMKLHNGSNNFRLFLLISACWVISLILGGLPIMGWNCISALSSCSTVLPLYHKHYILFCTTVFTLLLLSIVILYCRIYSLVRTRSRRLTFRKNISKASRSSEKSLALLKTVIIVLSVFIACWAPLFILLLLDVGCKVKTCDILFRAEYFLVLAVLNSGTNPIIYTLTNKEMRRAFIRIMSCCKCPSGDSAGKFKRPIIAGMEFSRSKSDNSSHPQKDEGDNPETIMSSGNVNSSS
Description: as §2

[6] = molecular target: T2, G2A (Homo sapiens, UniProt Q9UNW8); assay: β-arrestin cell-based GPCR assay (DiscoveRx), agonist mode, orphan receptor G2A; details: for activation of G2A: GPCR screen
T2 sequence (Q9UNW8 1-380): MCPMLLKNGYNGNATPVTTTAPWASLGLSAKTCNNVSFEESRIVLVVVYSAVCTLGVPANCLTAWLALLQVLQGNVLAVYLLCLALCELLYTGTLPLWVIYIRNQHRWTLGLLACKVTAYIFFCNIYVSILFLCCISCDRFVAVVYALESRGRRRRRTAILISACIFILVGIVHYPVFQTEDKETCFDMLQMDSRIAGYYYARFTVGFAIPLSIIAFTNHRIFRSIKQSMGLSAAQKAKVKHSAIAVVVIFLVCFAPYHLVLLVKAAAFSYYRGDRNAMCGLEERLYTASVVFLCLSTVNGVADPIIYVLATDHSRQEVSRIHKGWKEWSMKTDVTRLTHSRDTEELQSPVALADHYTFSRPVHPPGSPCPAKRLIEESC
Description: (§3) The major N-acyl amide analog isolated from each family was assayed for agonist and antagonist activity against a panel of 240 human GPCRs (FIG. 3 and FIG. 8). […] The maximal activation of GPR119 and S1PR4 by the bacterial N-acyl amides was similar to the endogenous ligand (GPR119 100%, S1PR4 80%). Interactions between the bacterial N-acyl amides and GPCRs were also specific (FIG. 3A and FIG. 3B).
(§4) For each of the 6 N-acyl amide families (1-6) the analogue produced at the highest level in the heterologous expression experiments was assayed for GPCR activity. In the case of family 4 the major lysine analogue (N-3-hydroxyoleoyl lysine) was screened. Using β-arrestin cell-based assays at 10 uM ligand concentration, agonist and antagonist activity was assessed by DiscoveRx against 168 GPCRs with known ligands as well as 72 orphan GPCRs. […] Synthetic N-acyl amides were assayed in the same fashion.

[7] = molecular target: PTGIR (Homo sapiens, UniProt P43119); assay: β-arrestin cell-based GPCR assay (DiscoveRx), antagonist mode, PTGIR
PTGIR, sequence (P43119 whole entry): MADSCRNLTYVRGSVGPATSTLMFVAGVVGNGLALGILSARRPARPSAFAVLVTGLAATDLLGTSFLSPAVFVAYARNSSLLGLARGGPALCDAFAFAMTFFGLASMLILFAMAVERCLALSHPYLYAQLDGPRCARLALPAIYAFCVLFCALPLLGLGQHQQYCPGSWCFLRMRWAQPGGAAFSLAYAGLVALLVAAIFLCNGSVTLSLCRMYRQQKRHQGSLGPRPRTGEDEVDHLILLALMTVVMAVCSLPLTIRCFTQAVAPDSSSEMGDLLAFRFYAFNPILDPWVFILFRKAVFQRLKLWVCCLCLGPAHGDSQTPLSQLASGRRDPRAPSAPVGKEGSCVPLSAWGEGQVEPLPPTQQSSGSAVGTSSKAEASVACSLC
Description: as §3, §4

[8] = molecular target: PTGER4 (Homo sapiens, UniProt P35408); assay: β-arrestin cell-based GPCR assay (DiscoveRx), antagonist mode, PTGER4
PTGER4, sequence (P35408 whole entry): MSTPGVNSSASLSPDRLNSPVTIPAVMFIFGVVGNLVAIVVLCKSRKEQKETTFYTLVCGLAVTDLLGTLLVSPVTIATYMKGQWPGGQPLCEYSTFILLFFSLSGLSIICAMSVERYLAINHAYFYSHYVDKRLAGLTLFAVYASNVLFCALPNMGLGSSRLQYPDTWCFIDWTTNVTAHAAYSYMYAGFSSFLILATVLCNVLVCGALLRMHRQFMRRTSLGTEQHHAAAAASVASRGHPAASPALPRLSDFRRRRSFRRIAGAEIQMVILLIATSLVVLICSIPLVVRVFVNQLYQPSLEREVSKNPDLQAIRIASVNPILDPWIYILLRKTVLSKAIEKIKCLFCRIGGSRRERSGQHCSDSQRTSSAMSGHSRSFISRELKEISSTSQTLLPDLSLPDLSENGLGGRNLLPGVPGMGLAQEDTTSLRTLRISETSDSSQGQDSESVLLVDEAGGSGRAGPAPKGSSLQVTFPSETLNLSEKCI
Description: as §3, §4

[9] = molecular target: T3, GPR119 (Homo sapiens, UniProt Q8TDV5); assay: β-arrestin cell-based GPCR assay (DiscoveRx), agonist mode, GPR119; details: for interaction with GPR119: GPCR screen and dose response, FIG. 8
T3 sequence (Q8TDV5 1-335): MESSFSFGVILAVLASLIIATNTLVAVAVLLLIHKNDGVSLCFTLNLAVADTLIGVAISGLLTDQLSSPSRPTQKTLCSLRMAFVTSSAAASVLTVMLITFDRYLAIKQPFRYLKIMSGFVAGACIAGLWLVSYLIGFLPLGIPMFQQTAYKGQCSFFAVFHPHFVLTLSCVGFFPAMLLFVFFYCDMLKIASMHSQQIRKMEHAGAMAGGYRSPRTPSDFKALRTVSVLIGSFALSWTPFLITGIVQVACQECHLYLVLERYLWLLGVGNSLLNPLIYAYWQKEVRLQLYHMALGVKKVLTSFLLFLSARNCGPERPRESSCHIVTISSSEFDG
Description: as §3, §4

[10] = molecular target: T3, GPR119; assay: cAMP secondary assay in ACTOne HEK293 cells transfected with GPR119; format: cell-based; design: expressed in transfected cells; host or cells: ACTOne HEK293 cells; details: for cellular cAMP concentration: HEK293 cells stably transfected with GPR119 vs native cells
Description: FIG. 10 depicts a secondary assay of GPR119. ACTOne HEK293 cells (control) and ACTOne HEK293 cells transfected with GPR119 were exposed to equimolar concentrations of the endogenous GPR119 ligand oleoylethanolamide or the bacterial ligand N-oleoyl serinol. Relative fluorescent intensity was recorded for each ligand concentration compared to background signal. All data points were performed in quadruplicate and error bars represent SD around the mean. […] The DCEA [5-(N-Ethylcarboxamido)adenosine] control is presented to confirm cAMP response of the parental cell line.
as §1

[11] = mice; cited from earlier work

CCCCCCCC/C=C\CCCCCCCC(=O)OC(CO)CO [Compound 2-OG, 2-oleoyl glycerol]
GLP-1 secretion [1]: induced GLP-1 secretion to the same magnitude

CCCCCCCCCCCCC/C=C/[C@@H](O)[C@@H](N)COP(=O)(O)O [Compound S1P, sphingosine-1-phosphate, reference compound]
activation of S1PR2 [2]: activates
agonist activity at / interaction with S1PR4 [3]: activates
EC50 ([3]; β-arrestin assay, dose response in duplicate, read-out: EC50, activation of S1PR4): 0.09 µM
activation of S1PR3 [4]: activates
activation of S1PR1 [5]: activates

CCCCCCCCCCCCCC(O)CC(=O)NCC(=O)O (stereo not shown) [N-3-hydroxypalmitoyl glycine]
activation of G2A [6]: activate G2A

CCCCCCCCCCCCCC(O)CC(=O)N[C@@H](CCCCN)C(=O)O (stereo partly shown) [N-3-hydroxypalmitoyl lysine]
agonist activity at / interaction with S1PR4 [3]: specific agonist of S1PR4; also recorded: interacts with S1PR4

CCCCCCCCCCCCCC(O)CC(=O)NC(CCCN)C(=O)O (stereo not shown) [N-3-hydroxypalmitoyl ornithine, N-3-OH-palmitoyl ornithine]
activation of S1PR2 [2]: did not activate
agonist activity at / interaction with S1PR4 [3]: specific agonist of S1PR4; also recorded: interacts with S1PR4
Emax ([3]; relative to endogenous ligand, read-out: maximal activation of S1PR4 compared with the endogenous ligand): 80%
activation of S1PR3 [4]: did not activate
activation of S1PR1 [5]: did not activate

CCCCCCCCCCCC(O)CC(=O)OC(CCCCCCC)CC(=O)N[C@@H](CCC(N)=O)C(=O)O (stereo partly shown) [N-acyloxyacyl glutamine, 3-[(3-OH-myristoyl)oxy]decanoyl glutamine]
antagonism of PTGIR ([7]; antagonist screen): specifically antagonized
IC50 ([7]; in the presence of endogenous ligand, read-out: IC50, antagonist activity against PTGIR): 15 µM
antagonism of PTGER4 ([8]; antagonist screen): antagonized
IC50 ([8]; in the presence of endogenous ligand, read-out: IC50, antagonist activity against PTGER4): 43 µM

CCCCCCCCCCCCCC(=O)N[C@@H](C)C(=O)O [N-myristoyl alanine]
EC50 ([6]; β-arrestin assay, dose response, read-out: EC50, activation of G2A): 3 µM

CCCCCCCC/C=C\CCCCCCCC(=O)NC(CO)CO [N-oleoyl serinol]
interaction with GPR119 [9]: interacts with GPR119
maximum GPR119 activation compared with OEA ([9]; β-arrestin assay, FIG. 5A): ~2 fold
cellular cAMP concentration [10]: increased cellular cAMP concentrations in a GPR119 dependent fashion
GLP-1 secretion [1]: induced GLP-1 secretion to the same magnitude

CCCCCCCCCCCCCCCC(=O)N[C@@H](C)C(=O)O [N-palmitoyl alanine]
activation of G2A [6]: activate G2A

CCCCCCCCCCCCCCCC(=O)NCC(=O)O [N-palmitoyl glycine]
activation of G2A [6]: activates G2A

CCCCCCCCCCCCCCCC(=O)NC(CO)CO [N-palmitoyl serinol]
interaction with GPR119 [9]: interacts with GPR119
Emax ([9]; relative to endogenous ligand, read-out: maximal activation of GPR119 compared with the endogenous ligand): 100%

CCCCCCCC/C=C\CCCCCCCC(=O)NCCO [OEA, oleoylethanolamide]
EC50 ([9]; β-arrestin assay, dose response in duplicate, read-out: EC50, activation of GPR119): 7 µM
EC50 ([10]; HEK293 cells expressing GPR119, quadruplicate, read-out: EC50, cAMP response): 5.1 µM
cellular cAMP concentration [10]: increased cellular cAMP concentrations in a GPR119 dependent fashion
GLP-1 secretion [1]: induced GLP-1 secretion to the same magnitude
blood glucose in OGTT after intravenous delivery [11]: fails to lower blood glucose
